This is an account of results in patent publication US8980886B2, “Anthranilic acid derivatives” (Bayer Cropscience AG, priority 2010, dated 2015).

The nature of data set [1]: logP by HPLC on reversed-phase columns (C 18), EEC Directive 79/831 Annex V.A8. As to conditions: reversed-phase HPLC column (C 18), pH 2.7, HPLC, reversed-phase C 18, acidic range pH 2.7; table of compounds; read-out: log P. The data set is classed as physicochemical. The protocol: The logP values reported in the table above and in the Preparation Examples were determined in accordance with EEC Directive 79/831 Annex V.A8 by HPLC (High Performance Liquid Chromatography) on reversed-phase columns (C 18), with the following methods: The LC-MS determination in the acidic range is carried out at pH 2.7 using the mobile phases 0.1% aqueous formic acid and acetonitrile (contains 0.1% formic acid), linear gradient from 10% acetonitrile to 95% acetonitrile Calibration was carried out using unbranched alkan-2-ones (having from 3 to 16 carbon atoms) with known logP values (the logP values were determined by the retention times using linear interpolation between two successive alkanones).

The test system of a further data set is Tetranychus urticae. The data set can be described thus: Tetranychus test, OP-resistant (TETRUR spray treatment). It is filed as in vivo. As to conditions: 100 g/ha, sprayed bean leaf discs, all stages, after 6 days. The protocol: Solvents: 78.0 parts by weight of acetone 1.5 parts by weight of dimethylformamide Emulsifier: 0.5 part by weight of alkylaryl polyglycol ether To produce a suitable preparation of active compound, 1 part by weight of active compound is mixed with the stated amount of solvents and emulsifier, and the concentrate is diluted with emulsifier-containing water to the desired concentration. Discs of bean leaves (Phaseolus vulgaris) which are infested by all stages of the greenhouse red spider mite (Tetranychus urticae) are sprayed with an active compound preparation of the desired concentration. After 6 days, the activity in % is determined. 100% means that all of the spider mites have been killed; 0% means that none of the spider mites have been killed.

The next data set relates to Lucilia cuprina. Kind of data set: Lucilia cuprina test (LUCICU). It is filed as in vivo. As to conditions: 48 h, treated horse meat, larvae, after 2 days, read-out: kill in %. The protocol:
Solvent: dimethyl sulphoxide To produce a suitable preparation of active compound, 10 mg of active compound are mixed with 0.5 ml of dimethyl sulphoxide and the concentrate is diluted with water to the desired concentration. Vessels containing horse meat treated with the active compound preparation of the desired concentration are populated with about 20 Lucilia cuprina larvae. After 2 days, the kill in % is determined. 100% means that all of the larvae have been killed; 0% means that none of the larvae have been killed.

For another data set, the system named is Boophilus microplus. Kind of data set: Boophilus microplus test (BOOPMI injection). It is filed as in vivo. As to conditions: 20 μg/animal, injection into the abdomen, after 7 days. The protocol: Solvent: dimethyl sulphoxide To produce a suitable preparation of active compound, 10 mg of active compound are mixed with 0.5 ml of solvent and the concentrate is diluted with solvent to the desired concentration. The active compound solution is injected into the abdomen (Boophilus microplus), and the animals are transferred into dishes and stored in a climate-controlled room. The activity is assessed by […] of fertile eggs. After 7 days, the effect in % is determined. 100% means that none of the ticks has laid any fertile eggs.

For another data set, the system named is Phaedon cochleariae. Kind of data set: Phaedon test (PHAECO spray treatment). The data set is classed as in vivo. As to conditions: 168 h, sprayed Chinese cabbage discs, after 7 days, read-out: activity in % (beetle larvae killed). How it is done:
(§1) Solvents: 78.0 parts by weight of acetone 1.5 parts by weight of dimethylformamide Emulsifier: 0.5 part by weight of alkylaryl polyglycol ether To produce a suitable preparation of active compound, 1 part by weight of active compound is mixed with the stated amount of solvents and emulsifier, and the concentrate is diluted with emulsifier-containing water to the desired concentration. Discs of Chinese cabbage (Brassica pekinensis) are sprayed with an active compound preparation of the desired concentration and, after drying, populated with larvae of the mustard beetle (Phaedon cochleariae). After 7 days, the activity in % is determined. 100% means that all beetle larvae have been killed; 0% means that none of the beetle larvae have been killed.

The test system of another data set is Musca domestica. Kind of data set: Musca domestica test (MUSCDO). The data set is classed as in vivo. As to conditions: 100 ppm, treated sponge, adult flies, after 2 days. How it is done: Solvent: dimethyl sulphoxide To produce a suitable preparation of active compound, 10 mg of active compound are mixed with 0.5 ml of dimethyl sulphoxide and the concentrate is diluted with water to the desired concentration. Vessels containing a sponge treated with the active compound preparation of the desired concentration are populated with adult Musca domestica. After 2 days, the kill in % is determined. 100% means that all of the flies have been killed; 0% means that none of the flies have been killed.

A further data set has as its system Spodoptera frugiperda. Kind of data set: Spodoptera frugiperda test (SPODFR spray treatment). The data set is classed as in vivo. As to conditions: foliar, 168 h, sprayed maize leaf discs, after 7 days, read-out: effect in % (caterpillars killed). How it is done:
as §1, with “maize leaves (Zea mays)” for “Chinese cabbage (Brassica pekinensis)”, “caterpillars” for “larvae”, “armyworm (Spodoptera frugiperda).” for “mustard beetle (Phaedon cochleariae).”, “effect” for “activity”, “determined” for “determined.”, “caterpillars” for “beetle larvae”

In a further data set the test system is Myzus persicae. The data set can be described thus: Myzus test (MYZUPE spray treatment). The data set is classed as in vivo. As to conditions: 100 g/ha, sprayed Chinese cabbage discs, all stages, after 6 days. The protocol:
Solvents: 78 parts by weight of acetone 1.5 parts by weight of dimethylformamide Emulsifier: 0.5 part by weight of alkylaryl polyglycol ether To produce a suitable preparation of active compound, 1 part by weight of active compound is mixed with the stated amount of solvents and emulsifier, and the concentrate is diluted with emulsifier-containing water to the desired concentration. Discs of Chinese cabbage (Brassica pekinensis) infested by all stages of the green peach aphid (Myzus persicae) are sprayed with an active compound preparation of the desired concentration. After 6 days, the effect in % is determined. 100% means that all of the aphids have been killed; 0% means that none of the aphids have been killed.

In the case of `Cc1cc(Br)cc(C(N)=O)c1NC(=O)c1sc(Cn2nnc(C(F)(F)F)n2)nc1-c1ccccc1Cl` [Compound 3], in data set [1], the chromatographic logP is 3.45. Further, in the data set on Tetranychus urticae, the “activity in % (spider mites killed)” value is listed as 100%. Also, the pest or weed control at 100 ppm in the data set on Lucilia cuprina was determined as 100%.

Regarding `Cc1cc(Cl)cc(C(=O)NC(C)(C)C)c1NC(=O)c1nc(Cn2nnc(C(F)(F)F)n2)sc1-c1ccccc1Cl` [Compound 8], the chromatographic logP in data set [1] is 4.75. The “activity in % (spider mites killed)” value in the data set on Tetranychus urticae was found to be 80%.

On to `Cc1cc(C#N)cc(C(=O)NC(C)C)c1NC(=O)c1cnc(Cn2nnc(C(F)(F)F)n2)nc1-c1ccccc1Cl` [Compound 37], for which the “effect in % (no fertile eggs laid)” value in the data set on Boophilus microplus amounted to 100%. The pest or weed control at 100 g/ha in the data set with Phaedon cochleariae and in the data set on Spodoptera frugiperda was 100% in each case. The compound also showed a kill in % in the data set on Musca domestica of 100%. In addition, the chromatographic logP in data set [1] came to 3.5. Further, the pest or weed control at 100 ppm in the data set on Lucilia cuprina was determined as 100%.

`Cc1cc(C#N)cc(C(=O)NC(C)(C)C)c1NC(=O)c1cnc(Cn2nnc(C(F)(F)F)n2)nc1-c1ccccc1Cl` [Compound 39]: the “effect in % (no fertile eggs laid)” value with Boophilus microplus is listed as 100%. In addition, the pest or weed control at 100 g/ha in the data set with Phaedon cochleariae and with Spodoptera frugiperda was 100% in each case. In data set [1], the chromatographic logP is 3.85. Besides, in the data set on Lucilia cuprina, the pest or weed control at 100 ppm is 100%.

As to `Cc1cc(C#N)cc(C(N)=O)c1NC(=O)c1cnc(Cn2nnc(C(F)(F)F)n2)nc1-c1ccccc1Cl` [Compound 40], the “effect in % (no fertile eggs laid)” value in the data set on Boophilus microplus was determined as 100%. Moreover, the pest or weed control at 100 g/ha with Phaedon cochleariae and in the data set on Spodoptera frugiperda was 100% in each case. Moreover, the chromatographic logP in data set [1] worked out at 2.69. Also, in the data set with Lucilia cuprina, the pest or weed control at 100 ppm turned out to be 100%.

As for `Cc1cc(Cl)cc(C(=O)NC(C)(C)C)c1NC(=O)c1cnc(Cn2nnc(C(F)(F)F)n2)nc1-c1ccccc1Cl` [Compound 41], the “effect in % (no fertile eggs laid)” value in the data set with Boophilus microplus is reported as 100%. In addition, the pest or weed control at 100 g/ha in the data set on Phaedon cochleariae and in the data set with Spodoptera frugiperda was 100% each time. Moreover, the chromatographic logP in data set [1] came out at 4.33. Further, the pest or weed control at 100 ppm in the data set on Lucilia cuprina worked out at 100%.

Consider `CNC(=O)c1cc(C#N)cc(C)c1NC(=O)c1cc(Cn2nnc(C(F)(F)F)n2)cn1-c1ccccc1Cl` [Compound 42], for which the pest or weed control at 100 g/ha in the data set on Phaedon cochleariae and with Spodoptera frugiperda was 100% in each case. In the data set on Myzus persicae, the “effect in % (aphids killed)” value worked out at 80%. Further, the chromatographic logP in data set [1] amounted to 3.31.

As for `CNC(=O)c1cc(Cl)cc(C)c1NC(=O)c1cc(Cn2nnc(C(F)(F)F)n2)cn1-c1ccccc1Cl` [Compound 43], the pest or weed control at 100 g/ha in the data set with Phaedon cochleariae and with Spodoptera frugiperda was 100% in each case. The “effect in % (aphids killed)” value with Myzus persicae is reported as 100%. The chromatographic logP in data set [1] amounted to 3.75.
